Laboratory results taken from patent US7183375B2, “Inhibitors for continuous activation for calcineurin” (Agencey of Industrial Science and Technology, priority 2002, dated 2007).
Where a SMILES comes first, the peptide text is derived from it. Where no end group is shown, it is not given here.

Assays:
neuronal cells = assay: Neuronal cell death induced by glutamic acid (TUNEL staining, TUNEL positive cell count); type: cell-based, Wister rat; conditions: peptides of SEQ Nos. 5 and 6 1 μM, FK506 1 μM, ALLM 25 μM; glutamic acid 500 μM; TUNEL at 3, 6, 12 or 24 hours; FIG. 2
Procedure: (§1) After the brain hippocampus from 18 days embryo of Wister rat had been removed, it was treated with PBS containing 0.05% trypsin for 15 minutes at 37° C. After the neuronal cells were suspended with a glass pipet, 1×10^6 cells were cultured in a 3.5 cm diameter culture dish which was previously coated with poly-D-lysine. As the medium, 3 ml Neuro Basal medium (available from Invitrogen, Inc.) complemented with B27 supplement (0.03 ml; available from Invitrogen, Inc.), penicillin (100 units/ml in the final concentration; available from Invitrogen, Inc.) and streptomycin (100 μg/ml in the final concentration; available from Invitrogen, Inc.) was used and the cultivation was carried out in carbon dioxide incubator (5% CO2, 37° C.).
The neuronal cells were cultured in the same manner as in Example 1, and then the above-mentioned peptides of SEQ Nos. 5 and 6 were added in the final concentration of 1 μM in the same manner as in Example 1. The calcineurin inhibitor, FK506 (available from Fujisawa pharmaceutical Co., Ltd.; the final concentration of 1 μM) or calpain inhibitor, ALLM (available from Merck & Co., Inc.; the final concentration of 25 μM) was added as a control. After 2 hours incubation with each reagent, glutamic acid was added in the final concentration of 500 μM, followed by 15 minutes incubation. […] The TUNEL positive cell was counted.

neuronal cell death = conditions: reported in literature (Morioka 1999; Springer 2000); cited from earlier work
[1] = test system: calcineurin subunit A (CaNA); assay: Cleavage of CaNA in cultured neuronal cells after glutamic acid addition (Western blotting); type: cell-based, Wister rat; conditions: peptides of SEQ Nos. 5 and 6 at 1 μM; glutamic acid 500 μM, 15 minutes; cells collected at 3 hours and 24 hours; FIG. 1
Procedure: as §1
The peptides of above-mentioned SEQ Nos. 5 and 6 were added in the culture solution with the final concentration of 1 μM 10 days after beginning of culture, and it was incubated in carbon dioxide incubator (5% CO2, 37° C.). Three hours after the addition, glutamic acid was added in the final concentration of 500 μM, and it was incubated for 15 minutes. The culture solution was then exchanged, and it was further cultured. The cells were collected at 3 hours and 24 hours after glutamic acid was added, were disrupted by ultrasonic wave in 1% SDS solution, and the SDS-PAGE buffer was added thereto. […]

Row | Compound | neuronal cell death induced by glutamic acid (neuronal cells) | neuronal cell death (neuronal cell death) | cleavage of calcineurin caused by the addition of glutamic acid [1]
1 | CSCC[C@@H](C=O)NC(=O)[C@H](CC(C)C)NC(=O)[C@H](CC(C)C)NC(C)=O [ALLM] (Ac-Leu-Leu-Met-aldehyde) | same degree |  | 
2 | cyclosporin A |  | suppresses neuronal cell death | 
3 | cleavage inhibiting peptide: peptides of SEQ Nos. 5 and 6 added together to the culture solution, 1 μM final concentration (chain 1 RRRRRRRRRRFDGATAAARKEVIRNK; chain 2 RRRRRRRRRRREESESVLTLKGLTPTG; also: mixture of two peptides added together) | suppressive effect |  | inhibited
